The target of one assay is T1, HMG-CoA synthase (Rattus norvegicus, UniProt P17425).
T1 construct: The livers from male Charles River CD rats (225-350 g) were homogenized; from tissue; host or cells: rat liver (male Charles River CD rats), 100,000 x g supernatant, ammonium sulfate and DEAE-52 fraction
T1 sequence (P17425 1-520): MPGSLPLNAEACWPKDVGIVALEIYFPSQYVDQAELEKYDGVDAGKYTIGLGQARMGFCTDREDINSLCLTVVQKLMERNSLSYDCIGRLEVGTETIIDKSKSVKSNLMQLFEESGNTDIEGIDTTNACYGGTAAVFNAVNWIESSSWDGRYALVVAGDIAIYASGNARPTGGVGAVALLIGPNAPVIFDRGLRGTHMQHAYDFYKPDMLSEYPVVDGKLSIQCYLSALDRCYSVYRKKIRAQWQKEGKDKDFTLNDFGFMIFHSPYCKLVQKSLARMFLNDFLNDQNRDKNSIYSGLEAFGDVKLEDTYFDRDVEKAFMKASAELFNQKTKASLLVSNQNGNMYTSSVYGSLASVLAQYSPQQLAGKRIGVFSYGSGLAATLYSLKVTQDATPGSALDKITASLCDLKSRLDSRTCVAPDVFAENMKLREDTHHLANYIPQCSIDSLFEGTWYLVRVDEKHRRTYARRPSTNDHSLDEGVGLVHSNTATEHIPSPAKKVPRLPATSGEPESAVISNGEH
In words: HMG-CoA Synthase Inhibition Assay. The class given is biochemical. The following applies: Table I; rat liver enzyme, 1-[14C]-acetyl-CoA incorporation. How it is done:
The intrinisic HMG-CoA synthase inhibition activity of the compounds of this invention is measured by the standard in vitro protocol described below:
The livers from male Charles River CD rats (225-350 g) were homogenized in 0.25 M sucrose which was adjusted with phenylmethylsulfonylfluoride (PMSF) and N-p-tosyl-1-lysine chloromethyl ketone (TLCK) so that the final concentration of each was […], respectively. The homogenate was centrifuged at 15,000× g for 20 minutes, the supernatant filtered through a fine nylon screen to remove most of the fat layer and recentrifuged at 100,000× g for 1 hour. This supernatant was removed and 1 M potassium phosphate, dithiothreitol (DTT) and ethylene glycolbis(β-aminoethyl ether)-N,N,N',N'-tetraacetic acid (EGTA) added to give a final concentration of 0.1 M (pH 7.2), 0.5 mM and 0.1 mM, respectively. Solid ammonium sulfate was added to 50% saturation to the protein solution, it was centrifuged at 15,000× g and the supernatant discarded. This precipitated protein could be stored at -70° C. for at least one month with very little loss of activity. The ammonium sulfate precipitate was dissolved in an minimal amount of 0.06 M potassium phosphate buffer (pH 7.2) containing 0.5 mM dithiothreitol and 0.1 mM EGTA (referred to as 0.06 M phosphate buffer) and dialyzed overnight against 2 liters of the same buffer to remove the ammonium sulfate and to inactivate HMG-CoA lyase [Clinkenbeard, et al., J. Biol. Chem. 250, 3108-3116(1975)].
The dialyzed extract was added to a column of DEAE-52 (Whatman) which had been equilibrated with 0.06 M phosphate buffer (10 mg of protein in 1 ml bed volume of the resin). The DEAE-cellulose was eluted with 0.06 M phosphate buffer until the optical density at 280 nm was essentially zero. This fraction contained the β-ketoacetyl-CoA thiolase activity. The HMG-CoA synthase was eluted from the column with 0.1 M phosphate buffer (pH 7.2) containing 0.5 mM DTT and […] EGTA, and was virtually free of all thiolase activity. The protein was precipitated by the addition of ammonium sulfate to give 50% saturation. This solution was stirred for 10 minutes at 4° C. and the precipitate collected by centrifugation at 15,000 rpm for 10 minutes. The supernatant was discarded and the precipitate dissolved in a minimum of 0.06 M phosphate buffer, pH 7.2 (about 10 ml) and the enzyme stored at -80° C.
HMG-CoA Synthase Inhibition Assay
Enzyme protein (ca. 24 mg) was added to a solution containing […] Tris-HCl (pH 8.0), 11.7 μM MgCl2, 1.17 μM ethylenediaminetetraacetic acid (EDTA), 0.58 μM dithiothreitol, and the indicated concentrations of the test compound (added as a 2 mg/ml solution in dimethylsulfoxide). The incubation took place in a volume of 0.085 ml at 30° in a shaking water bath. After 5 minutes, […] of a solution containing acetoacetyl-CoA and 0.1 μCi of 1-[^14 C]-acetyl-CoA was added to give a final concentrations of 0.1 and 0.4 μM, respectively. The incubation was continued for 10 more minutes and the reaction stopped by the addition of […] of the assay mixture to 0.2 ml of 6N HCl in a glass scintillation vial. The vial was heated for 1 hour at 120° after which time 0.2 ml more of 6N HCl was again added to each vial and the heating continued for another hour. Following this, 1.0 ml of 0.9% saline was added to each vial and finally 10 ml of scintillation liquid. Radioactivity was determined in a Packard Tri-Carb liquid scintillation counter. Percent inhibition is calculated by the formula: [formula]
IC50 values were determined by plotting the log of the concentration of the test compound verses the percentage inhibition and fitting a straight line to the resulting data by using the least squares method.
The IC50 is the concentration at which inhibition is half-maximal. A low value points to greater potency. `CC[C@@H]1C(=O)N(S(=O)(=O)c2ccc(C)cc2)[C@@H]1COC(=O)c1cc2ccccc2o1` (relative stereo) [Table I ff] displayed an IC50 of 33 nM. Same read-out and setting: the value for `CC[C@@H]1C(=O)N(S(=O)(=O)c2ccc(C)cc2)[C@@H]1COC(=O)c1ccccc1[N+](=O)[O-]` (relative stereo) [Table I c] was 23 nM; that for `CC[C@@H]1C(=O)N(S(=O)(=O)c2ccc(C)cc2)[C@@H]1COC(=O)c1cccnc1` (relative stereo) [Table I bb] was 64 nM. In turn, `CC[C@@H]1C(=O)N(S(=O)(=O)c2ccc(C)cc2)[C@H]1COC(=O)c1ccc(OC)cc1` (relative stereo) [Table I tt] displayed an IC50 of 170 nM. Against the preceding molecule, the IC50 is about 2.7-fold higher.

Molecule `CC[C@@H]1C(=O)N(S(=O)(=O)c2ccc(C)cc2)[C@@H]1COC(=O)c1csc(OC)n1` (relative stereo) [Table I qq] returned an IC50 of 45 nM. `COc1ccc(C(=O)OC[C@@H]2[C@H](CO)C(=O)N2S(=O)(=O)c2ccc(C)cc2)cc1` (relative stereo) [Table I aa] had an IC50 of 180 nM. This IC50 is about 4-fold higher than that of the molecule before. The molecule `CC[C@@H]1C(=O)N(S(=O)(=O)c2ccc(C)cc2)[C@@H]1COC(=O)c1ccccc1NS(C)(=O)=O` (relative stereo) [Table I l] yielded an IC50 of 31 nM. Same read-out and setting: the value for `CC[C@@H]1C(=O)N(S(=O)(=O)c2ccc(C)cc2)[C@@H]1COC(=O)c1ccc(OC)nc1` (relative stereo) [Table I f] was 41 nM; that for `CC[C@@H]1C(=O)N(S(=O)(=O)c2ccc(C)cc2)[C@@H]1COC(=O)c1ccccc1N` (relative stereo) [Table I n] was 31 nM; that for `CCC[C@@H]1C(=O)N(S(=O)(=O)c2ccc(C)cc2)[C@@H]1COC(=O)c1ccc(OC)cc1` (relative stereo) [Table I z] was 69.5 nM. As to `CCC[C@@H]1C(=O)N(S(=O)(=O)c2ccc(C)cc2)[C@H]1COC(=O)c1ccc(OC)cc1` (relative stereo) [Table I rr], inhibition was half-maximal at 35 nM (IC50). With `CC[C@@H]1C(=O)N(S(=O)(=O)c2ccc(C)cc2)[C@@H]1COC(=O)c1ccc(NS(C)(=O)=O)cc1` (relative stereo) [Table I nn], the IC50 came out at 16 nM. This IC50 lies about 2.2-fold lower than the previous one. `CC[C@@H]1C(=O)N(S(=O)(=O)c2ccc(C)cc2)[C@@H]1COC(=O)c1cccc(NC(C)=O)c1` (relative stereo) [Table I u] displayed an IC50 of 72 nM. Still for that read-out and setting: the value for `CC[C@@H]1C(=O)N(S(=O)(=O)c2ccc(C)cc2)[C@@H]1COC(=O)c1ccc(OC)c(OC)n1` (relative stereo) [Table I pp] was 89 nM. Still for that read-out and setting: the value for `CC[C@@H]1C(=O)N(S(=O)(=O)c2ccc(C)cc2)[C@@H]1COC(=O)c1ccnc2ccccc12` (relative stereo) [Table I r] was 25 nM; that for `CC[C@@H]1C(=O)N(S(=O)(=O)c2ccc(C)cc2)[C@@H]1COC(=O)c1ccc(OCc2ccccc2)cc1` (relative stereo) [Table I q] was 40 nM. Regarding `CC[C@@H]1C(=O)N(S(=O)(=O)c2ccc(C)cc2)[C@@H]1COC(=O)c1ccsc1` (relative stereo) [Table I a], inhibition was half-maximal at 710 nM (IC50).

Consider `CC[C@@H]1C(=O)N(S(=O)(=O)c2ccc(C)cc2)[C@@H]1COC(=O)c1ccc(C(=O)O)cc1` (relative stereo) [Table I x], for which the midpoint of inhibition, the IC50, lay at 350 nM. Same read-out and setting: the value for `CC[C@@H]1C(=O)N(S(=O)(=O)c2ccc(C)cc2)[C@@H]1COC(=O)c1ccc(C(=O)OC(c2ccccc2)c2ccccc2)cc1` (relative stereo) [Table I w] was 62 nM; that for `C=CCOc1c(OC)cc(C(=O)OC[C@@H]2[C@H](CC)C(=O)N2S(=O)(=O)c2ccc(C)cc2)cc1[N+](=O)[O-]` (relative stereo) [Table I ll] was 160 nM.

The assay is the same for the next values; noted with them: Table II; rat liver enzyme, 1-[14C]-acetyl-CoA incorporation.
`CO[C@H](C(=O)OC[C@@H]1CC(=O)N1S(=O)(=O)c1ccc(C)cc1)c1ccccc1` [Table II e] gave an IC50 of 42 nM. The same measure, in the same setting: the value for `CC[C@H]1C(=O)N(S(=O)(=O)c2ccc(C)cc2)[C@H]1COC(=O)Nc1ccc(C(F)(F)F)cc1` (relative stereo) [Table II x] was 260 nM. As for `CC[C@@H]1C(=O)N(S(=O)(=O)c2ccc(C)cc2)[C@@H]1COC(=O)/C=C/c1ccco1` (relative stereo) [Table II m], the IC50 was found to be 250 nM.

In turn, `CC[C@H]1C(=O)N(S(=O)(=O)c2ccc(C)cc2)[C@H]1COC(=O)CSc1ccccc1` (relative stereo) [Table II q] came in with a half-maximal inhibitory concentration (IC50) of 42 nM. The same measure, in the same setting: the value for `CC[C@H]1C(=O)N(S(=O)(=O)c2ccc(C)cc2)[C@H]1COC(=O)Cc1cc(OC)c(OC)c(OC)c1` (relative stereo) [Table II s] was 20 nM. In turn, `CC[C@@H]1C(=O)N(S(=O)(=O)c2ccc(C)cc2)[C@@H]1COC(=O)COc1ccccc1` (relative stereo) [Table II n] displayed an IC50 of 24 nM. The molecule `CC[C@H]1C(=O)N(S(=O)(=O)c2ccc(C)cc2)[C@H]1COC(=O)/C=C/c1ccc(OC)c(OC)n1` (relative stereo) [Table II z] gave an IC50 of 27 nM.

`CCOc1ccc(CC(=O)OC[C@H]2[C@@H](CC)C(=O)N2S(=O)(=O)c2ccc(C)cc2)cc1` (relative stereo) [Table II r] registered an IC50 of 22 nM. The molecule `CC[C@@H]1C(=O)N(S(=O)(=O)c2ccc(C)cc2)[C@@H]1COC(=O)/C=C/c1ccc(OC)cc1` [Table II k] had an IC50 of 11 nM.

Still in this assay, the particulars now being: Table IV; rat liver enzyme, 1-[14C]-acetyl-CoA incorporation.
In the case of `CCC[C@H]1C(=O)N(S(=O)(=O)c2ccc(C)cc2)[C@H]1C=Cc1ccccc1` (relative stereo) [Table IV b], the IC50 amounted to 2200 nM. The same measure, in the same setting: the value for `Cc1ccc(S(=O)(=O)N2C(=O)[C@H](CO)[C@@H]2C=Cc2ccccc2)cc1` (relative stereo) [Table IV d] was 1100 nM; that for `CC[C@@H]1C(=O)N(S(=O)(=O)c2ccc(C)cc2)[C@@H]1C(C)=Cc1ccccc1` (relative stereo) [Table IV f] was 430 nM.

The assay is the same for the next values; noted with them: Table V; rat liver enzyme, 1-[14C]-acetyl-CoA incorporation.
Take `CCC1C(=O)N(S(=O)(=O)c2ccc(C)cc2)C1C(OC(=O)c1ccc(OC)cc1)c1ccccc1` (stereo not drawn) [Table V e]: half-maximal inhibition (IC50) was put at 2000 nM. In turn, `CCC1C(=O)N(S(=O)(=O)c2ccc(C)cc2)C1C(C)OC(=O)c1ccc(OC)cc1` (stereo not drawn) [Table V c] gave an IC50 of 120 nM. The molecule `CC[C@H]1C(=O)N(S(=O)(=O)c2ccc(C)cc2)[C@H]1CNc1ccc(C(=O)O)cc1` (relative stereo) [Table V a, (±) cis-3-Ethyl-4-hydroxycarbonylphenylaminomethyl-N-toluenesulfonyl-2-azetidinone] registered an IC50 of 9900 nM. Compared with the last molecule, the IC50 is about 82-fold higher.

The assay is the same for the next values; noted with them: Table VI; rat liver enzyme, 1-[14C]-acetyl-CoA incorporation.
In turn, `Cc1ccc(S(=O)(=O)N2C(=O)C(C)(C)C2CCc2ccccc2)cc1` (stereo not drawn) [Table VI a] yielded an IC50 of 1800 nM.

The record behind these values is patent US4983597A, “Beta-lactams as anticholesterolemic agents” (Merck & Co., Inc., priority 1989, dated 1991).
